In PubChem BioAssay AID248 (DTP/NCI, 2004):
Where “and” joins values, the source holds several entries; their conditions need not be identical. Identical values can stand only once. Toxic doses and inconclusive results are not listed. Rule as the data show it: active = T/C of 150% or more; inactive = T/C below 125%. Bridge positions count the residues as written; N and C are the ends. Peptide text beside a SMILES is read from it. I, II: the chains in the order shown.

System: L1210 leukemia ip in BDF1 mice, survival T/C
Test: NCI In Vivo Anticancer Drug Screen. Data for tumor model L1210 Leukemia (intraperitoneal) in B6D2F1 (BDF1) mice
Conditions: endpoint: mean survival time, higher = longer survival
Summary of the method: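 Value reflects the ratio of survival in compound-treated mice to survival in vehicle-treated controls, with both groups carrying the same transplanted tumor.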

[1] = dose: 100.0 mg/kg/injection, schedule: Q04DX002 (ip), vehicle: Klucel (hydroxypropylcellulose) (HPC)
[2] = dose: 400.0 mg/kg/injection, schedule: Q04DX002 (ip), vehicle: Klucel (hydroxypropylcellulose) (HPC)
[3] = dose: 100.0 mg/kg/injection, schedule: Q01DX009 (ip), vehicle: saline with Tween-80
[4] = dose: 200.0 mg/kg/injection, schedule: Q01DX009 (ip), vehicle: saline with Tween-80
[5] = dose: 400.0 mg/kg/injection, schedule: Q01DX009 (ip), vehicle: saline with Tween-80
[6] = dose: 100.0 mg/kg/injection, schedule: Q01DX001 (ip), vehicle: saline
[7] = dose: 200.0 mg/kg/injection, schedule: Q01DX001 (ip), vehicle: saline
[8] = dose: 400.0 mg/kg/injection, schedule: Q01DX001 (ip), vehicle: saline
[9] = dose: 100.0 mg/kg/injection, schedule: Q01DX009 (ip), vehicle: Klucel (hydroxypropylcellulose) (HPC)
[10] = dose: 200.0 mg/kg/injection, schedule: Q01DX009 (ip), vehicle: Klucel (hydroxypropylcellulose) (HPC)
[11] = dose: 400.0 mg/kg/injection, schedule: Q01DX009 (ip), vehicle: Klucel (hydroxypropylcellulose) (HPC)
[12] = dose: 100.0 mg/kg/injection, schedule: Q04DX003 (ip), vehicle: saline with Tween-80
[13] = dose: 25.0 mg/kg/injection, schedule: Q01DX009 (ip), vehicle: Klucel (hydroxypropylcellulose) (HPC)
[14] = dose: 50.0 mg/kg/injection, schedule: Q01DX009 (ip), vehicle: Klucel (hydroxypropylcellulose) (HPC)
[15] = dose: 50.0 mg/kg/injection, schedule: Q04DX002 (ip), vehicle: Klucel (hydroxypropylcellulose) (HPC)
[16] = dose: 100.0 mg/kg/injection, schedule: Q04DX003 (ip), vehicle: Klucel (hydroxypropylcellulose) (HPC)
[17] = dose: 200.0 mg/kg/injection, schedule: Q04DX003 (ip), vehicle: Klucel (hydroxypropylcellulose) (HPC)
[18] = dose: 400.0 mg/kg/injection, schedule: Q04DX003 (ip), vehicle: Klucel (hydroxypropylcellulose) (HPC)
[19] = dose: 100.0 mg/kg/injection, schedule: Q01DX001 (ip), vehicle: other
[20] = dose: 200.0 mg/kg/injection, schedule: Q01DX001 (ip), vehicle: other
[21] = dose: 100.0 mg/kg/injection, schedule: Q01DX001 (ip), vehicle: Klucel (hydroxypropylcellulose) (HPC)
[22] = dose: 200.0 mg/kg/injection, schedule: Q01DX001 (ip), vehicle: Klucel (hydroxypropylcellulose) (HPC)
[23] = dose: 400.0 mg/kg/injection, schedule: Q01DX001 (ip), vehicle: Klucel (hydroxypropylcellulose) (HPC)
[24] = dose: 200.0 mg/kg/injection, schedule: Q04DX003 (ip), vehicle: saline with Tween-80
[25] = dose: 400.0 mg/kg/injection, schedule: Q04DX003 (ip), vehicle: saline with Tween-80

Measured: T/C

CCN1CCCN(CC)C1=O
inactive: [1] 96 % of control | dose: 200.0 mg/kg/injection, schedule: Q04DX002 (ip), vehicle: Klucel (hydroxypropylcellulose) (HPC) 96 % of control | [2] 90 % of control

NC(=O)NC(C(=O)O)(c1ccccc1)C1CCC1 (centres undefined)
inactive: dose: 50.0 mg/kg/injection, schedule: Q01DX009 (ip), vehicle: saline with Tween-80 103 % of control | [3] 94 % of control | [4] 102 % of control | [5] 107 % of control

CCOC(=O)C(Cc1ccc(O)cc1)NC(=O)C(N)CSSCC(N)C(=O)NC(Cc1ccc(O)cc1)C(=O)OCC (stereo not drawn) (I: H-Cys-Tyr-OEt / II: H-Cys-Tyr-OEt; disulfide I:1-II:1; configuration not given here)
inactive: [6] 97 % of control | [7] 105 % of control | [8] 94 % of control

O=C1OCC2C1C1CCC2C1(Cl)Cl (centres undefined)
inactive: dose: 75.0 mg/kg/injection, schedule: Q01DX001 (ip), vehicle: other 98 % of control

CCCCCCCCCCCCCCOC(=O)Cl
inactive: [9] 101 % of control | [10] 97 % of control | [11] 86 % of control

O=CC(Br)C(Br)c1ccccc1 (centres undefined)
inactive: [12] 98 % of control

C=C1CC(c2ccc(S(=O)(=O)N(CC)CC)cc2)OC1=O (centres undefined)
inactive: dose: 25.0 mg/kg/injection, schedule: Q01DX005 (ip), vehicle: Klucel (hydroxypropylcellulose) (HPC) 89 % of control | [13] 98 % of control | dose: 25.0 mg/kg/injection, schedule: Q04DX002 (ip), vehicle: Klucel (hydroxypropylcellulose) (HPC) 96 % of control | dose: 50.0 mg/kg/injection, schedule: Q01DX005 (ip), vehicle: Klucel (hydroxypropylcellulose) (HPC) 92 % of control | [14] 94 % of control | [15] 96 % of control | dose: 100.0 mg/kg/injection, schedule: Q01DX005 (ip), vehicle: Klucel (hydroxypropylcellulose) (HPC) 96 % of control | [9] 98 % of control | [1] 96 % of control

COC(=O)c1nc2c(N)nc(-c3ccccc3)nc2nc1N
inactive: [16] 103 % of control | [17] 98 % of control | [18] 106 % of control

C[n+]1ccc(/C=C/c2ccc(Cl)c(Cl)c2)cc1
inactive: dose: 3.0 mg/kg/injection, schedule: Q01DX009 (ip), vehicle: Klucel (hydroxypropylcellulose) (HPC) 105 % of control | dose: 6.0 mg/kg/injection, schedule: Q01DX009 (ip), vehicle: Klucel (hydroxypropylcellulose) (HPC) 93 % of control | dose: 12.0 mg/kg/injection, schedule: Q01DX009 (ip), vehicle: Klucel (hydroxypropylcellulose) (HPC) 93 % of control | dose: 12.5 mg/kg/injection, schedule: Q04DX003 (ip), vehicle: Klucel (hydroxypropylcellulose) (HPC) 104 % of control

CC(=O)c1ccccc1OC(F)(F)C(F)Cl (centres undefined)
inactive: [6] 101 % of control | [7] 103 % of control | [8] 103 % of control

O=C(Nc1csnn1)c1ccco1
inactive: dose: 50.0 mg/kg/injection, schedule: Q01DX001 (ip), vehicle: other 104 % of control | [19] 115 % of control | [20] 104 % of control | dose: 400.0 mg/kg/injection, schedule: Q01DX001 (ip), vehicle: other 110 % of control

NC(=O)c1cn(C2OC(CO)C(O)C2O)c2ncn3ccnc3c12 (centres undefined)
inactive: dose: 6.25 mg/kg/injection, schedule: Q01DX005 (ip), vehicle: saline 101 % of control | dose: 12.5 mg/kg/injection, schedule: Q01DX005 (ip), vehicle: saline 106 % of control

O=C(CC(NCc1ccccc1)C(=O)O)c1ccccc1 (centres undefined)
inactive: [6] 100 % of control | [7] 97 % of control | [8] 97 % of control

COc1ccc(OC)c(C(=S)N2CCOCC2)c1
inactive: [21] 94 % of control | [16] 96 % of control | [22] 102 % of control | [17] 96 % of control | [23] 100 % of control | [18] 96 % of control

Cc1cc(=O)[nH]c(=S)[nH]1
inactive: [21] 90 % of control | [22] 101 % of control | [23] 92 % of control

Cn1nnc(CCCl)n1
inactive: [6] 110 % of control | [7] 91 % of control | [8] 95 % of control

Cc1ccc2c(c1)[n+]([O-])c1nc(N)nc(N)c1[n+]2[O-]
inactive: [15] 93 % of control | dose: 53.0 mg/kg/injection, schedule: Q01DX001 (ip), vehicle: Klucel (hydroxypropylcellulose) (HPC) 97 % of control | dose: 88.0 mg/kg/injection, schedule: Q01DX001 (ip), vehicle: Klucel (hydroxypropylcellulose) (HPC) 96 % of control | [1] 102 % of control and 104 % of control | dose: 133.0 mg/kg/injection, schedule: Q01DX001 (ip), vehicle: Klucel (hydroxypropylcellulose) (HPC) 91 % of control | [22] 97 % of control | dose: 300.0 mg/kg/injection, schedule: Q01DX001 (ip), vehicle: Klucel (hydroxypropylcellulose) (HPC) 104 % of control | [2] 98 % of control and 119 % of control

Oc1ccc(Cl)cc1C=Nc1cnc2ccccc2c1
inactive: dose: 100.0 mg/kg/injection, schedule: Q01DX001 (ip), vehicle: carboxymethylcellulose (CMC) 88 % of control | dose: 400.0 mg/kg/injection, schedule: Q01DX001 (ip), vehicle: carboxymethylcellulose (CMC) 101 % of control

CCC(=O)Nc1cc(C)ccc1Cl
inactive: [9] 101 % of control | [10] 103 % of control | [11] 103 % of control

N#CC(C(=O)c1ccccc1)(C(=O)c1ccccc1)c1cccc2ccccc12
inactive: [14] 89 % of control | [9] 95 % of control | [16] 90 % of control | [10] 92 % of control | [17] 96 % of control | [18] 95 % of control

N#Cc1nccc2ccc(OCc3ccc(Br)cc3)cc12
inactive: [12] 88 % of control | [24] 86 % of control | [25] 89 % of control

CCCn1nnc2ccccc2c1=Nc1ccccc1
inactive: dose: 100.0 mg/kg/injection, schedule: Q04DX003 (ip), vehicle: saline 99 % of control | dose: 200.0 mg/kg/injection, schedule: Q04DX003 (ip), vehicle: saline 94 % of control | dose: 400.0 mg/kg/injection, schedule: Q04DX003 (ip), vehicle: saline 103 % of control

CCOC(=O)Nc1cc2c(c(N)n1)N=C(CN(C)c1ccc(C(=O)OC)cc1)CN2
inactive: dose: 5.0 mg/kg/injection, schedule: Q01DX009 (ip), vehicle: saline with Tween-80 105 % of control | dose: 10.0 mg/kg/injection, schedule: Q01DX009 (ip), vehicle: saline with Tween-80 118 % of control | dose: 20.0 mg/kg/injection, schedule: Q01DX009 (ip), vehicle: saline with Tween-80 124 % of control | [19] 107 % of control | [20] 111 % of control

Nc1[nH]c(=O)ncc1-c1cccc(Cl)c1
inactive: dose: 12.5 mg/kg/injection, schedule: Q01DX009 (ip), vehicle: Klucel (hydroxypropylcellulose) (HPC) 103 % of control | [13] 95 % of control | [14] 100 % of control and 103 % of control

CC(C)(C)c1cc(C(C)(C)C)nc(C(C)(C)C)c1
inactive: [21] 98 % of control | [22] 98 % of control

Oc1ccc(C(c2ccc(O)c(Cl)c2)c2ccccn2)cc1Cl
inactive: [16] 102 % of control | [17] 98 % of control | [18] 100 % of control

CCCC(NC(=O)C(C)Br)C(=O)O (centres undefined)
inactive: [3] 88 % of control | [4] 98 % of control | [5] 95 % of control

CCOC(=O)c1cc2cc([N+](=O)[O-])ccc2oc1=O
inactive: [16] 93 % of control | [17] 93 % of control | [18] 94 % of control

CCCCC(=O)N/N=C/c1ccccc1Cl
inactive: [6] 102 % of control | [7] 104 % of control

CC(C)NC(=O)Nc1cccc(OC(=O)NC(C)(C)C)c1
inactive: [12] 88 % of control | [24] 91 % of control | [25] 89 % of control
